From US9714238B2, “Therapeutic agents for ocular hypertension” (Allergan, Inc., priority 2010, dated 2017) come the findings set out here.

Usually EC50 stands for the concentration that produces a half-maximal response. High values mean weaker potency, low ones greater potency. The Ki is the equilibrium dissociation constant of an inhibitor or competing ligand from its target. The low end stands for tighter binding, the high end for weaker binding.

A value given as a limit tells only on which side of the number the result lay.

In series [1] the target is T1, EP2 (Homo sapiens, UniProt P43116). Briefly: EP2 cAMP functional assay. In kind it is cell-based. The settings on record: unit inferred. As to the method: (§1) Data from running binding and activity studies on the compounds of the invention were carried out as described in the U.S. Pat. No. 7,427,685, the contents of which are incorporated herein by reference.
T1 sequence (P43116 whole entry): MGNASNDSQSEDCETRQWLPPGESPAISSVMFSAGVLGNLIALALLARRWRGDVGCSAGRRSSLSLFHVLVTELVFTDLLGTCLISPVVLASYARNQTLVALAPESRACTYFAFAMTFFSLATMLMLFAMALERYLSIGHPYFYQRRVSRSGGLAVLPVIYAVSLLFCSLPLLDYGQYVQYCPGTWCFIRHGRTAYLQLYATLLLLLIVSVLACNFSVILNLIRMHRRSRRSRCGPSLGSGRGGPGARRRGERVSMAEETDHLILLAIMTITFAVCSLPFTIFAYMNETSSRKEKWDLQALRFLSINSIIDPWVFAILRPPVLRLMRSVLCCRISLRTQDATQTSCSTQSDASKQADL
The target in series [2] is T1, EP2. Briefly: EP2 binding. Conditions: unit inferred. As for the experimental part: as §1
Series [3] deals with T2, EP4 (Homo sapiens, UniProt P35408). Briefly: EP4 binding. The settings on record: unit inferred. As to the method: as §1
T2 sequence (P35408 whole entry): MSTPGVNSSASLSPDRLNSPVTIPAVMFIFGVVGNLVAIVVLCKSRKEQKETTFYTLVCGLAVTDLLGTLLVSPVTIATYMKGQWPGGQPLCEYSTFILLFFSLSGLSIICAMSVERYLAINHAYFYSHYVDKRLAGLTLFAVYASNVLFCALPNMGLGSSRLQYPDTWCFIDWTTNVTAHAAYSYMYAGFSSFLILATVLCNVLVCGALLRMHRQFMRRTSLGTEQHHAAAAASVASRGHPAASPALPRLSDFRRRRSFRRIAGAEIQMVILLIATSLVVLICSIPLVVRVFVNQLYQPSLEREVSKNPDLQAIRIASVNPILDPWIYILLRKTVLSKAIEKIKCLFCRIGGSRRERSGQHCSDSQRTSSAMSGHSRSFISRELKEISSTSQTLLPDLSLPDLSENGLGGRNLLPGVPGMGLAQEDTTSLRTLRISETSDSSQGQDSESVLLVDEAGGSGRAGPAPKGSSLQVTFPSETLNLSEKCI
The target in series [4] is T2, EP4. Briefly: EP4 flipr functional assay. Format: cell-based. Conditions: unit inferred. As for the experimental part: as §1
A further series deals with T3, hEP3A (Homo sapiens, UniProt P43115).
T3 sequence (P43115 1-390): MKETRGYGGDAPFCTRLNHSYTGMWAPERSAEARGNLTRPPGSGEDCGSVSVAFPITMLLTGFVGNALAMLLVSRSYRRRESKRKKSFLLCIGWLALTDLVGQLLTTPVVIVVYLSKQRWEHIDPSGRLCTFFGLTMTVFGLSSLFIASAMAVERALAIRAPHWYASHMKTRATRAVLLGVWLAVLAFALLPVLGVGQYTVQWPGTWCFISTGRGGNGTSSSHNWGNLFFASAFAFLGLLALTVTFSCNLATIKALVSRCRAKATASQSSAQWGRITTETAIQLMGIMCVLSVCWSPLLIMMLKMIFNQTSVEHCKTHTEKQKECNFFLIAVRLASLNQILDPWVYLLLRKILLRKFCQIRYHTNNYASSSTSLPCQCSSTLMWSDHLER
As to the kind of experiment: Other receptors functional activity, hEP3A. In kind it is cell-based. As for the experimental part:
as §1

A further series deals with T4, hTP (Homo sapiens, UniProt P21731).
T4 sequence (P21731 1-343): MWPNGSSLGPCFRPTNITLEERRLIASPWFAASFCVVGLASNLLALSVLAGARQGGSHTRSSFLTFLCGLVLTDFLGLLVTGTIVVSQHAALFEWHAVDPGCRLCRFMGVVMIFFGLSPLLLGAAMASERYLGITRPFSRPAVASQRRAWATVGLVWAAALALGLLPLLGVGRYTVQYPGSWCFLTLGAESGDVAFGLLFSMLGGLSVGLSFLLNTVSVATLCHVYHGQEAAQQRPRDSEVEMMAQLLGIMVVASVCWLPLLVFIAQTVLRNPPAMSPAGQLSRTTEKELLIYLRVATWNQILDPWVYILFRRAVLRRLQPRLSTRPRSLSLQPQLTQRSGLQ
Briefly: Other receptors functional activity, hTP. Format: cell-based. As to the method: as §1

The target of series [5] is T2, EP4. As to the kind of experiment: EP4 cAMP functional assay. In kind it is cell-based. The settings on record: unit inferred. As to the method:
as §1

The next series has as its system normotensive dogs. Briefly: Intraocular pressure and ocular surface hyperemia in normotensive dogs. In kind it is in vivo, dog. As for the experimental part:
Isopropyl 2-(3-(6-hexyl-1-naphthamido)phenoxy)acetate was tested in normotensive dogs at 0.05%, dosing once daily for 5 days. The maximum intraocular pressure (IOP) decrease from baseline was 4.7 mmHg (28%) at 30 h; the maximum ocular surface hyperemia (OSH) score was 1.0 at 26 h. This compound was also tested in laser-induced hypertensive monkeys, using one single day dose. At 0.05%, the maximum IOP decrease from baseline was 17.1 mmHg (48%) at 24 h.
Isopropyl 2-(3-(6-(1-hydroxyhexyl)-1-naphthamido)phenoxy)acetate was tested in normotensive dogs at two concentrations, dosing once daily for 5 days. At 0.005%, the maximum intraocular pressure (IOP) decrease from baseline was 4.1 mmHg (22%) at 4 h; the maximum ocular surface hyperemia (OSH) score was 1.6 at 2 h. At 0.01%, the maximum intraocular pressure (IOP) decrease from baseline was 4.4 mmHg (26%) at 4 h; the maximum ocular surface hyperemia (OSH) score was 1.5 at 50 h. This compound was also tested in laser-induced hypertensive monkeys at two concentrations, using one single day dose. At 0.005%, the maximum IOP decrease from baseline was 8.1 mmHg (30%) at 24 h. At 0.01%, the maximum IOP decrease from baseline was 15.4 mmHg (42%) at 24 h.
Isopropyl 2-(3-(6-butyl-1-naphthamido)phenoxy)acetate was tested in normotensive dogs at 0.01%, dosing once daily for 4 days. The maximum intraocular pressure (IOP) decrease from baseline was 5.1 mmHg (26%) at 78 h; the maximum ocular surface hyperemia (OSH) score was 0.9 at 4 h. This compound was also tested in laser-induced hypertensive monkeys, using one single day dose. At 0.01%, the maximum IOP decrease from baseline was 14.1 mmHg (38%) at 24 h.
Isopropyl 2-(3-(3-hexylquinoline-8-carboxamido)phenoxy)acetate was tested in normotensive dogs at 0.01%, dosing once daily for 5 days. The maximum intraocular pressure (IOP) decrease from baseline was 2.8 mmHg (14%) at 100 h; the maximum ocular surface hyperemia (OSH) score was 0.8 at 28 h. This compound was also tested in laser-induced hypertensive monkeys, using one single day dose. At 0.01%, the maximum IOP decrease from baseline was 8.8 mmHg (19%) at 6 h.

On EP2 [1], `CCCCCCc1ccc2c(C(=O)Nc3cccc(OCC(=O)O)c3)cccc2c1` [Example 1, 2-(3-(6-Hexyl-1-naphthamido)phenoxy)acetic acid] gave an EC50 of 2 nM. Moreover, the values for the Ki at EP2 [2] and on EP4 [3] were 99 nM and more than 10000 nM, respectively.

With `CCCCCc1ccc2c(C(=O)Nc3cccc(OCC(=O)O)c3)cccc2c1` [Example 2, 2-(3-(6-Pentyl-1-naphthamido)phenoxy)acetic acid], a half-maximal response on EP2 [1] (EC50) required 2 nM. The Ki on EP2 [2] is 383 nM; at EP4 [3], more than 10000 nM.

At EP2 [1], `CCCCc1ccc2c(C(=O)Nc3cccc(OCC(=O)O)c3)cccc2c1` [Example 3, 2-(3-(6-Butyl-1-naphthamido)phenoxy)acetic acid] gave an EC50 of 1 nM. Further, the results for the Ki on EP2 [2] and on EP4 [3] were 51 nM and more than 10000 nM, respectively.

Regarding `CCCCCCCc1ccc2c(C(=O)Nc3cccc(OCC(=O)O)c3)cccc2c1` [Example 4, 2-(3-(6-Heptyl-1-naphthamido)phenoxy)acetic acid], the values for the EC50 on EP2 [1] and at EP4 [4] were 15 nM and more than 10000 nM, respectively. The Ki at EP2 [2] was found to be 1200 nM; at EP4 [3] it was 7680 nM.

Take `CCCc1ccc2c(C(=O)Nc3cccc(OCC(=O)O)c3)cccc2c1` [Example 5, 2-(3-(6-Propyl-1-naphthamido)phenoxy)acetic acid]: the EC50 came out at 5 nM at EP2 [1] and 7130 nM at EP4 [4]. The Ki at EP2 [2] came to 30 nM; on EP4 [3], 6920 nM.

For `CCc1ccc2c(C(=O)Nc3cccc(OCC(=O)O)c3)cccc2c1` [Example 6, 2-(3-(6-Ethyl-1-naphthamido)phenoxy)acetic acid], at EP2 [1], the response was half-maximal at 5 nM (EC50). Besides, the Ki on EP2 [2] was 112 nM; at EP4 [3], more than 10000 nM.

`Cc1ccc2c(C(=O)Nc3cccc(OCC(=O)O)c3)cccc2c1` [Example 7, 2-(3-(6-Methyl-1-naphthamido)phenoxy)acetic acid] gave an EC50 on EP2 [1] of 65 nM. Moreover, the Ki was 1190 nM at EP2 [2] and more than 10000 nM on EP4 [3].

Compound `O=C(O)COc1cccc(NC(=O)c2cccc3ccccc23)c1` [Example 8, 2-(3-(1-Naphthamido)phenoxy)acetic acid] displayed a 50% effective concentration (EC50) at EP2 [1] of 83 nM. The Ki at EP2 [2] is 4600 nM; at EP4 [3] it was more than 10000 nM.

Take `CCCCCCc1ccc2c(C(=O)NCCc3ccc(C(=O)O)s3)cccc2c1` [Example 9, 5-(2-(6-Hexyl-1-naphthamido)ethyl)thiophene-2-carboxylic acid]: the EC50 was 25 nM at EP2 [1] and 9400 nM on EP4 [4]. The Ki on EP2 [2] worked out at 3210 nM; on EP4 [3] it was 2450 nM.

`CCCCCC(O)c1ccc2c(C(=O)Nc3cccc(OCC(=O)O)c3)cccc2c1` (centres unmarked) [Example 10, 2-(3-(6-(1-hydroxyhexyl)-1-naphthamido)phenoxy)acetic acid] gave an EC50 on EP2 [1] of 0.2 nM. Further, the figures for the Ki at EP2 [2] and at EP4 [3] were 37 nM and more than 10000 nM, respectively.

On to `CCCC(O)c1ccc2c(C(=O)Nc3cccc(OCC(=O)O)c3)cccc2c1` (centres unmarked) [Example 11, 2-(3-(6-(1-Hydroxybutyl)-1-naphthamido)phenoxy)acetic acid], for which the EC50 on EP2 [1] came to 0.7 nM. Besides, the figures for the Ki on EP2 [2] and on EP4 [3] were 63 nM and 5310 nM, respectively.

Turning to `CCCCCCc1cnc2c(C(=O)Nc3cccc(OCC(=O)O)c3)cccc2c1` [Example 12, 2-(3-(3-Hexylquinoline-8-carboxamido)phenoxy)acetic acid], the EC50 at EP2 [1] was 0.8 nM; on hEP3A, 13300 nM; at hTP it was 6560 nM; at EP4 [4], 4680 nM. The values for the Ki at EP2 [2] and at EP4 [3] were 25 nM and 2150 nM, respectively.

As to `CCCCc1cnc2c(C(=O)Nc3cccc(OCC(=O)O)c3)cccc2c1` [Example 13, 2-(3-(3-Butylquinoline-8-carboxamido)phenoxy)acetic acid], the 50% effective concentration (EC50) at EP2 [1] was 2 nM; on EP4 [5], more than 10000 nM. For the same compound, the results for the Ki at EP2 [2] and at EP4 [3] were 27 nM and 2060 nM, respectively.

Regarding `CCCCc1cnc2c(C(=O)NCCc3ccc(C(=O)O)s3)cccc2c1` [Example 14, 5-(2-(3-Butylquinoline-8-carboxamido)ethyl)thiophene-2-carboxylic acid], the EC50 at EP2 [1] was 12 nM; on EP4 [5] it was more than 10000 nM. The Ki at EP2 [2] stood at 350 nM; on EP4 [3], 2030 nM.

As to `CCCCCOc1ccc2c(C(=O)Nc3cccc(OCC(=O)O)c3)cccc2c1` [Example 15, 2-(3-(6-(Pentyloxy)-1-naphthamido)phenoxy)acetic acid], the EC50 at EP2 [1] was 25 nM; at EP4 [5], more than 10000 nM. Also, the Ki amounted to 201 nM at EP2 [2] and 8480 nM at EP4 [3].

With `CCCCCCc1cnc2c(C(=O)Nc3cccc(OCC(=O)OC(C)C)c3)cccc2c1` [Isopropyl 2-(3-(3-hexylquinoline-8-carboxamido)phenoxy)acetate], the “maximum ocular surface hyperemia (OSH) score” value with normotensive dogs (0.01%, once daily for 5 days, at 28 h) is 0.8.

As to `CCCCCC(O)c1ccc2c(C(=O)Nc3cccc(OCC(=O)OC(C)C)c3)cccc2c1` (centres unmarked) [Isopropyl 2-(3-(6-(1-hydroxyhexyl)-1-naphthamido)phenoxy)acetate], the “maximum ocular surface hyperemia (OSH) score” value in the series with normotensive dogs (0.005%, once daily for 5 days, at 2 h) was found to be 1.6; with normotensive dogs (0.01%, once daily for 5 days, at 50 h), 1.5.

As to `CCCCc1ccc2c(C(=O)Nc3cccc(OCC(=O)OC(C)C)c3)cccc2c1` [Isopropyl 2-(3-(6-butyl-1-naphthamido)phenoxy)acetate], in the series with normotensive dogs (0.01%, once daily for 4 days, at 4 h), the “maximum ocular surface hyperemia (OSH) score” value is listed as 0.9.

`CCCCCCc1ccc2c(C(=O)Nc3cccc(OCC(=O)OC(C)C)c3)cccc2c1` [Isopropyl 2-(3-(6-hexyl-1-naphthamido)phenoxy)acetate]: the “maximum ocular surface hyperemia (OSH) score” value with normotensive dogs (0.05%, once daily for 5 days, at 26 h) turned out to be 1.0.
